Experimental data as given in patent US20240293405A1, “(1H-PYRROLO[2,3-B]PYRIDIN-1-YL)PYRIMIDIN-2-YL-AMINO-PHENYL-ACRYLAMIDE INHIBITORS OF EGFR FOR USE IN THE TREATMENT OF BRAIN TUMORS” (Dana-Farber Cancer Institute, Inc., priority 2021, published 2024).
“Also recorded” adds a separate entry of the source. Read-outs that look alike come from different tables or passages of the source.

Assays:
BT179 cells = test: Cell viability, patient-derived GBM line BT179; conditions: Homo sapiens, 72 h
Protocol: (§1) Primary human glioblastoma lines BT112, BT179 and BT333 were maintained in NeuroCult proliferation medium (human) (StemCell Technologies) with 20 ng/ml EGF, 10 ng/ml FGF and 0.0002% Heparin.

[1] = Comparative plasma protein binding; assay type: in vitro ADME; conditions: human, monkey, dog, rat, mouse, across species, independent of concentration, read-out: plasma protein bound
From the text: Compound 1 was highly protein bound (95.6 to 98.7%) to plasma protein across species. Binding was independent of concentration.

[2] = tested on: three primary patient-derived GBM cell lines harboring EGFR amplification and/or mutations; test: Cell viability, three patient-derived GBM cell lines (summary); assay type: cell-based; conditions: Homo sapiens; neurosphere culture; read-out: IC50 of cell viability, range over three patient cell lines
Protocol: Cells were seeded in 96-well plates at a density of 1,000 cells per well and treated with two-fold serial dilutions of compounds with a starting concentration of 20 μM. Cell viability was assessed after three days of treatment by CellTiter-Glo (Promega). Curve fitting analysis and IC50 value determination were performed using GraphPad Prism 8.

[3] = Oral rat 4-week toxicity study with toxicokinetics; assay type: in vivo, Sprague-Dawley rats
Protocol: Compound 1 (0, 10, 30, and 100 mg/kg/day) was given orally, once daily by gavage to male and female Sprague-Dawley rats for up to 28 days. Morbidity, associated with marked body weight loss, necessitated termination of dosing in the high-dose group on Days 12/13. At this time, 5/sex in the high-dose group were taken to necropsy and 5/sex were started on recovery for the remainder of the study.
There were no obvious sex differences or accumulation (Table 13).
Major histological findings at the interim necropsy (100 mg/kg) included generalized lymphoid depletion, pulmonary edema/inflammation and testicular seminiferous tubule degeneration. All findings except testicular degeneration were reversible (˜14 days) in this study; the reversibility period was not long enough to assess reversibility of testicular changes. […] The STD10 was 30 mg/kg.

BT112 cells = test: Cell viability, patient-derived GBM line BT112; conditions: Homo sapiens, 72 h
Protocol: as §1

[4] = Oral dog 4-week toxicity study with toxicokinetics; assay type: in vivo, beagle dogs; conditions: for HNSTD: 4-week oral
Protocol: Compound 1 (0, 10, 30, and 100 mg/kg/day) was given orally, once daily by gavage, to male and female beagle dogs (4/sex) for up to 28 days. […] The cause of death in this high-dose male was attributed to myocardial degeneration. This lesion was not observed in any other dog on study. Increases in alkaline phosphatase, globulin, cholesterol, triglycerides and fibrinogen and decreased reticulocyte counts noted in the high-dose group at mid-study returned towards baseline by the end of the study following 11/12 days of recovery. Testicular changes at all doses (seminiferous epithelial vacuolation at 10 and 30 mg/kg and degeneration/atrophy at 100 mg/kg) were not reversible in this short-term study; the reversibility period was not long enough to assess reversibility of testicular changes.
The increases were generally dose-proportional or greater-than dose-proportional on Day 1 and Day 28. Gender difference was not observed. No significant accumulation of Compound 1 or Compound 2 was observed.
Thirty-two beagle dogs (conventional, naive) were divided into four groups. Each group consists of four male and four female. Group 1 beagle dogs were administered vehicle and groups 2-4 beagle dogs were administered Compound 1 at 10 mg/kg, 30 mg/kg, and 100 mg/kg, respectively, by oral gavage once daily for 28 consecutive days (Table 15). […] Cmax (ng/mL) and AUClast (hr*ng/mL) of Compound 1 on day 1 were obtained for groups 2-4 (Table 15).

CYP3A4/3A5 = test: CYP phenotyping, human liver microsomes; assay type: in vitro ADME
From the text: Metabolism, inhibition and induction were not observed with other CYPs. Potential DDI interactions exist with drugs that are inhibitors of CYP3A4-T or those metabolized by CYP3A4/3A5; these DDI risks will be better defined once there are human pharmacokinetics (PK) data.

[5] = Oral dog dose-range toxicity study; assay type: in vivo
Protocol: In the dog dose-range study, Compound 1 was given to male and female beagle dogs orally by gavage either once (30, 100, 600, 1000 mg/kg) or once daily for 14 days (30, 100, 300 mg/kg/day).
The HNSTD was estimated to be 100 mg/kg/day in this study.

[6] = Pharmacokinetics in rats (IV, PO); assay type: in vivo, rat; conditions: for bioavailability: independent of dose
From the text: Exposure was generally dose proportional.

[7] = In vivo metabolite identification; design: species or system rat, dog and monkey
From the text: In in vivo studies in rat, dog and monkey, 35 metabolites were identified. The major circulating compound in all species was parent compound; parent was also a major component in rat feces. Compound 2, demethylated metabolite, was a major active metabolite in all species in plasma and in rat feces. M34, glutathione conjugation and hydrolysis and acetylation metabolite, was a major metabolite in rat urine. Compound 1 was extensively metabolized during excretion with 31 metabolites in rat urine and 32 metabolites in rat feces.

[8] = tested on: 468 human kinases and disease relevant mutant variants; test: Kinase selectivity binding panel (468 kinases); conditions: 468 kinase panel, 1 μM free base
Protocol: Compound 1 and Compound 2 (major metabolite) were evaluated in a panel of 468 human kinases and disease relevant mutant variants. Compound 1 and Compound 2 bound to few non-mutant kinases at <1% of control. […] While there is some variability between Compound 1 and Compound 2, it is clear that both compounds are very effective at binding to a large panel of mutant kinases. […] Binding constant to wild type EGFR was 4.9 nM.

[9] = both sexes, beagle, in vivo, dog, day 1, oral gavage

Question: Which IC50 (BT179 cells) does the source give for `C=CC(=O)Nc1cc(Nc2nccc(-n3ccc4cccnc43)n2)c(OC)cc1N(C)CCN(C)C` [Compound 1, N-(5-((4-(1H-pyrrolo[2,3-b]pyridin-1-yl)pyrimidin-2-yl)amino)-2-((2-(dimethylamino)ethyl)(methyl)amino)-4-methoxyphenyl)acrylamide] here?
Answer: 893 nM

Question: And the fraction unbound [1]?
Answer: 0.013 to 0.044

Question: What about the IC50 [2] of the same molecule?
Answer: 890 to 3280 nM

Question: What about the NOAEL at 28 days ([3]; both sexes, Sprague-Dawley, in vivo, oral, 4-week Rat toxicology) of the same molecule?
Answer: 10 mg/kg

Question: And the “NOEL for testicular lesions” value ([3]; both, Sprague-Dawley, rat, in vivo)?
Answer: 10 mg/kg

Question: What about the STD10 ([3]; both, Sprague-Dawley, rat, in vivo, po) of the same molecule?
Answer: 30 mg/kg

Question: And the “NOEL for myocardial risk” value ([3]; rat)?
Answer: 100 mg/kg

Question: And the “toxicity at 10 mg/kg” value ([3]; rat, in vivo, po, 10 mg/kg)?
Answer: No toxicity

Question: And the IC50 (BT112 cells)?
Answer: 2040 nM

Question: What about the mortality ([4]; 100 mg/kg/day, attributed to myocardial degeneration) of the same molecule?
Answer: one male was found dead on Day 13

Question: What about the Cmax ([4]; beagle, in vivo, po, dog Day 1, 10 mg/kg/day, Female) of the same molecule?
Answer: 142 ng/mL

Question: What about the AUC(0-t) ([4]; beagle, in vivo, po, dog Day 1, 10 mg/kg/day, Female, read-out: AUClast) of the same molecule?
Answer: 2060 ng·h/mL

Question: What about the Cmax ([4]; beagle, in vivo, po, dog Day 1, 10 mg/kg/day, Male) of the same molecule?
Answer: 166 ng/mL

Question: What about the AUC(0-t) ([4]; beagle, in vivo, po, dog Day 1, 10 mg/kg/day, Male, read-out: AUClast) of the same molecule?
Answer: 1650 ng·h/mL

Question: And the Cmax ([4]; beagle, in vivo, po, dog Day 1, 30 mg/kg/day, Female)?
Answer: 170 ng/mL

Question: What about the AUC(0-t) ([4]; beagle, in vivo, po, dog Day 1, 30 mg/kg/day, Female, read-out: AUClast) of the same molecule?
Answer: 1960 ng·h/mL

Question: What about the Cmax ([4]; beagle, in vivo, po, dog Day 1, 30 mg/kg/day, Male) of the same molecule?
Answer: 317 ng/mL

Question: What about the AUC(0-t) ([4]; beagle, in vivo, po, dog Day 1, 30 mg/kg/day, Male, read-out: AUClast) of the same molecule?
Answer: 3790 ng·h/mL

Question: What about the Cmax ([4]; beagle, in vivo, po, dog Day 1, 100 mg/kg/day, Female) of the same molecule?
Answer: 293 ng/mL

Question: And the AUC(0-t) ([4]; beagle, in vivo, po, dog Day 1, 100 mg/kg/day, Female, read-out: AUClast)?
Answer: 4060 ng·h/mL

Question: What about the Cmax ([4]; beagle, in vivo, po, dog Day 1, 100 mg/kg/day, Male) of the same molecule?
Answer: 367 ng/mL

Question: What about the AUC(0-t) ([4]; beagle, in vivo, po, dog Day 1, 100 mg/kg/day, Male, read-out: AUClast) of the same molecule?
Answer: 5190 ng·h/mL

Question: What about the NOAEL ([4]; both sexes, beagle, in vivo, oral, 4-week Dog toxicology) of the same molecule?
Answer: 10 mg/kg

Question: And the Tmax [4, 9]?
Answer: 4 h

Question: And the half-life [4, 9]?
Answer: 8 h

Question: And the “NOEL for myocardial risk” value ([4]; dog)?
Answer: 30 mg/kg

Question: What about the HNSTD ([4]; dog) of the same molecule?
Answer: 30 mg/kg

Question: And the HNSTD ([4]; dog, estimated)?
Answer: 30 mg/kg/day

Question: And the Cmax ([4]; female, beagle, in vivo, dog Day 28 mean, 10 mg/kg Compound 1 PO, F, Compound 2 as metabolite)?
Answer: 867 ng/mL

Question: And the AUC(0-t) ([4]; female, beagle, in vivo, dog Day 28 mean, 10 mg/kg Compound 1 PO, F, Compound 2 as metabolite, read-out: AUC0-24)?
Answer: 6540 ng·h/mL

Question: What about the Cmax ([4]; female, beagle, in vivo, dog Day 28 mean, 30 mg/kg Compound 1 PO, F, Compound 2 as metabolite) of the same molecule?
Answer: 508 ng/mL

Question: What about the AUC(0-t) ([4]; female, beagle, in vivo, dog Day 28 mean, 30 mg/kg Compound 1 PO, F, Compound 2 as metabolite, read-out: AUC0-24) of the same molecule?
Answer: 3490 ng·h/mL

Question: What about the “human equivalent dose (HED) of the NOEL for myocardial risk” value ([4]; from dog NOEL 30 mg/kg) of the same molecule?
Answer: 15 mg/kg

Question: What about the Cmax ([4]; male, beagle, in vivo, dog Day 28 mean, 10 mg/kg Compound 1 PO, M, Compound 2 as metabolite) of the same molecule?
Answer: 578 ng/mL

Question: And the AUC(0-t) ([4]; male, beagle, in vivo, dog Day 28 mean, 10 mg/kg Compound 1 PO, M, Compound 2 as metabolite, read-out: AUC0-24)?
Answer: 3880 ng·h/mL

Question: What about the Cmax ([4]; male, beagle, in vivo, dog Day 28 mean, 30 mg/kg Compound 1 PO, M, Compound 2 as metabolite) of the same molecule?
Answer: 974 ng/mL

Question: And the AUC(0-t) ([4]; male, beagle, in vivo, dog Day 28 mean, 30 mg/kg Compound 1 PO, M, Compound 2 as metabolite, read-out: AUC0-24)?
Answer: 7180 ng·h/mL

Question: What about the “primarily metabolizing CYP” value (CYP3A4/3A5) of the same molecule?
Answer: CYP3A4/3A5

Question: And the “tolerability of a single oral dose” value ([5]; 30 to 1000 mg/kg)?
Answer: well tolerated

Question: What about the HNSTD ([5]; 14 days oral, estimated) of the same molecule?
Answer: 100 mg/kg/day

Question: And the clearance [6]?
Answer: moderately high clearance; also recorded: moderately high-clearance; also recorded: Moderate high-clearance

Question: What about the volume of distribution [6] of the same molecule?
Answer: large volume of distribution

Question: What about the clearance ([6]; listed as Compound 11) of the same molecule?
Answer: relatively high clearance rate

Question: And the bioavailability ([6]; rat, in vivo, po)?
Answer: ~50%

Question: What about the half-life ([6]; rat, plasma, Compound 2 as metabolite) of the same molecule?
Answer: ~5 h

Question: What about the Tmax ([6]; rat, plasma, po, Compound 2 as metabolite) of the same molecule?
Answer: ~5 h

Question: What about the bioavailability ([6]; rat, plasma, po) of the same molecule?
Answer: 50%

Question: And the “number of metabolites in rat feces” value ([7]; in vivo)?
Answer: 32

Question: And the “number of metabolites in rat urine” value ([7]; in vivo)?
Answer: 31

Question: What about the “number of metabolites identified in vivo” value ([7]; rat, dog and monkey) of the same molecule?
Answer: 35

Question: What about the “targeted non-mutant kinases (bound at <1% of control)” value [8] of the same molecule?
Answer: MAST1, PAK4, PDGFRB and ULK3
